The conditions of series [1]: rats; Gao et al., 2013; cited from earlier work.
The subject of series [2] is human PDA cell lines. Description: liquid colony forming assay. The following applies: concentration-dependent, 1.5-2 weeks. Type of series: cell-based.
A further series concerns orthotopic AsPC-1 tumors. Description: survival study, orthotopic AsPC-1 xenograft in NOD-SCID mice. Format: in vivo, mouse.
The next series deals with KPC mice (PDA). Description: survival study, KPC genetically engineered mouse model of PDA. Type of series: in vivo.
The test system of series [3] is human PDA cell lines. The following applies: concentration-dependent, 30 hour.
A further series addresses c-Kit (Homo sapiens (Human), UniProt P10721). As to the kind of experiment: FRET-based Z'-Lyte kinase assay, c-kit. Type of series: biochemical. Particulars: 300 μM ATP.
Series [4] has as its target Bcr-Abl (Homo sapiens, UniProt P00519). Description: FRET-based Z'-Lyte kinase assay, Abl. Format: biochemical. Particulars: 10 μM ATP; cells printed in μM.
A further series deals with DDR2 (Homo sapiens (Human), UniProt Q16832). Description: LanthaScreen Eu kinase activity assay, DDR2. Format: biochemical. Particulars: 100 nM ATP. A general note: In TR-FRET formats the signal depends on donor and acceptor labels being close together.
Series [5] deals with Bcr-Abl. Description: FRET-based Z'-Lyte kinase assay, Abl. Format: biochemical. The following applies: 10 μM ATP; cells printed in μM.
Another series deals with DDR1 (Homo sapiens (Human), UniProt Q08345). Description: LanthaScreen Eu kinase activity assay, DDR1. Type of series: biochemical. The following applies: 100 nM ATP.
In the next series the test system is AsPC-1 cells. Description: MTS viability assay, AsPC-1. Format: cell-based. The following applies: Homo sapiens. For orientation: Tetrazolium assays rely on reduction of a dye to a coloured formazan, in cell work by metabolically active cells.
Another series concerns PANC-1 cells. As to the kind of experiment: MTS viability assay, PANC-1. Type of series: cell-based. Particulars: Homo sapiens.

Where two headings read alike, the source gives them in different places.

Sequence of c-Kit (P10721 26-976): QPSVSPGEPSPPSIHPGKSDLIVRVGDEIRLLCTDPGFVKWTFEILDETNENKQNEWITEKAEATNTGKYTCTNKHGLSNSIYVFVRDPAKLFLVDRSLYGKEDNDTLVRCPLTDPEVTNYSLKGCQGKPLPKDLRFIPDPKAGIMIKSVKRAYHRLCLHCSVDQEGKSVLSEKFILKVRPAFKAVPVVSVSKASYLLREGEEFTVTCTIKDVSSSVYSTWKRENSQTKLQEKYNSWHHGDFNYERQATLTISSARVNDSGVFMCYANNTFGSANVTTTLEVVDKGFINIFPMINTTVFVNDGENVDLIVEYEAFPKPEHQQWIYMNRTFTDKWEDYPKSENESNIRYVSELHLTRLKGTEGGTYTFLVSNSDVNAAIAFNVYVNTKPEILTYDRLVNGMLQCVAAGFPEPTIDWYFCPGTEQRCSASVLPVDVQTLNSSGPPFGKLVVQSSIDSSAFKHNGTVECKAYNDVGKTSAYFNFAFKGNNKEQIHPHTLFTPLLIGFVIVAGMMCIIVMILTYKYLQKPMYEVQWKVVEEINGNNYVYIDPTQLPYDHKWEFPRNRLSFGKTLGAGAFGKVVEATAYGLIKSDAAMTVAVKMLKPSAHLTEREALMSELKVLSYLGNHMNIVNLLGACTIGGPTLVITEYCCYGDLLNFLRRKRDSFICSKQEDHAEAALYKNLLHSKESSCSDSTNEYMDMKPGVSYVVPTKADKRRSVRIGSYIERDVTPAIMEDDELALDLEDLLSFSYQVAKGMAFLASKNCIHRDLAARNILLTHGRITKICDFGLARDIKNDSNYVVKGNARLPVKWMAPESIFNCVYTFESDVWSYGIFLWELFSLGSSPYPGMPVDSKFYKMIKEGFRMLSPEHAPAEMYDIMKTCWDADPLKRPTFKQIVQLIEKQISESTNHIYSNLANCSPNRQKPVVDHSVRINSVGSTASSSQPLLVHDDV
Sequence of DDR1 (Q08345 19-913): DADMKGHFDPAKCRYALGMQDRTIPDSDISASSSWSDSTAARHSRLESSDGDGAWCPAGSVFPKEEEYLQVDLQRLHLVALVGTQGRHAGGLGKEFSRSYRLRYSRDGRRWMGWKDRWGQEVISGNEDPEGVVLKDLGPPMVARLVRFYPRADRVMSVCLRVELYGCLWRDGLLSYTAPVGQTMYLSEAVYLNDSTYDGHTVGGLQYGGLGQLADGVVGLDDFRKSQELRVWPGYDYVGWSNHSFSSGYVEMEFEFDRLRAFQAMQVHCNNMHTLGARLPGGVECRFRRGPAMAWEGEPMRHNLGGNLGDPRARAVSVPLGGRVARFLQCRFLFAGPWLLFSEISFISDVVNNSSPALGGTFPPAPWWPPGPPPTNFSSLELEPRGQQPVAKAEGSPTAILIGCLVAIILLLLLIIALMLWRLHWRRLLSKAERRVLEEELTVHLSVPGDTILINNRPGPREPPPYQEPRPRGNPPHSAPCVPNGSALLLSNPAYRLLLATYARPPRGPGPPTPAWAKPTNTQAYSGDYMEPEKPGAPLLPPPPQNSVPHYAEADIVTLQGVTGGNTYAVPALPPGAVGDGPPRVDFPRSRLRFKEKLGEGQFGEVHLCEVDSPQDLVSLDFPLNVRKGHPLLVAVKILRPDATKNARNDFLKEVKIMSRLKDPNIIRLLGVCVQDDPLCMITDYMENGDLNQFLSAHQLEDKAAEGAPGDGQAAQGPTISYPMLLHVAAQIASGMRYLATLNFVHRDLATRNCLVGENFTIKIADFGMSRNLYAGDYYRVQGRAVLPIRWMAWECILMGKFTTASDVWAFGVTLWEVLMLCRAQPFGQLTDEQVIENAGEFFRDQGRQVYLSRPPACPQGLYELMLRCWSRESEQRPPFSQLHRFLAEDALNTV
Sequence of DDR2 (Q16832 22-855): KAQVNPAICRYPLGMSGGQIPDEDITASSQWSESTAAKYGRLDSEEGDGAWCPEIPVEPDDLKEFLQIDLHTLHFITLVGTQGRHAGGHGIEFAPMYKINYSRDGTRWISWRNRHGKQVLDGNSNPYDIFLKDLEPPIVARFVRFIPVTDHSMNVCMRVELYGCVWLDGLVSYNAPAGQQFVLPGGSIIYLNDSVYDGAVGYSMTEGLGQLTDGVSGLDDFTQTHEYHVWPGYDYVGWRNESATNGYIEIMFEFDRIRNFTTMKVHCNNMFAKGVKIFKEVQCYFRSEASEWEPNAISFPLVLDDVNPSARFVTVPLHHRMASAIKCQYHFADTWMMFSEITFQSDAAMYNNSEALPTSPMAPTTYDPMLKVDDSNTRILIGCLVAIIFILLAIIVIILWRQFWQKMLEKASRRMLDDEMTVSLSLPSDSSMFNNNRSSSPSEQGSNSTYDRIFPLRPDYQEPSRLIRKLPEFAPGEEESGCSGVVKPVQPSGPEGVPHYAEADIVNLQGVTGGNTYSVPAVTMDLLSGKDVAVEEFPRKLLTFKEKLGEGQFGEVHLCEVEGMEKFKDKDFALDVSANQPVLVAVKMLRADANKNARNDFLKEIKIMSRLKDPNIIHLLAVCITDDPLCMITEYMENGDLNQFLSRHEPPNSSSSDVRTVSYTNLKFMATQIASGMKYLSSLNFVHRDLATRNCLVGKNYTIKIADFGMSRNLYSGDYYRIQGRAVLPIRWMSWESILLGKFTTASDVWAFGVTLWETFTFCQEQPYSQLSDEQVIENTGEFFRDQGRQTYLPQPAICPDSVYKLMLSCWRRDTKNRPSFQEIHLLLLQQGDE
Sequence of Bcr-Abl (P00519 whole entry): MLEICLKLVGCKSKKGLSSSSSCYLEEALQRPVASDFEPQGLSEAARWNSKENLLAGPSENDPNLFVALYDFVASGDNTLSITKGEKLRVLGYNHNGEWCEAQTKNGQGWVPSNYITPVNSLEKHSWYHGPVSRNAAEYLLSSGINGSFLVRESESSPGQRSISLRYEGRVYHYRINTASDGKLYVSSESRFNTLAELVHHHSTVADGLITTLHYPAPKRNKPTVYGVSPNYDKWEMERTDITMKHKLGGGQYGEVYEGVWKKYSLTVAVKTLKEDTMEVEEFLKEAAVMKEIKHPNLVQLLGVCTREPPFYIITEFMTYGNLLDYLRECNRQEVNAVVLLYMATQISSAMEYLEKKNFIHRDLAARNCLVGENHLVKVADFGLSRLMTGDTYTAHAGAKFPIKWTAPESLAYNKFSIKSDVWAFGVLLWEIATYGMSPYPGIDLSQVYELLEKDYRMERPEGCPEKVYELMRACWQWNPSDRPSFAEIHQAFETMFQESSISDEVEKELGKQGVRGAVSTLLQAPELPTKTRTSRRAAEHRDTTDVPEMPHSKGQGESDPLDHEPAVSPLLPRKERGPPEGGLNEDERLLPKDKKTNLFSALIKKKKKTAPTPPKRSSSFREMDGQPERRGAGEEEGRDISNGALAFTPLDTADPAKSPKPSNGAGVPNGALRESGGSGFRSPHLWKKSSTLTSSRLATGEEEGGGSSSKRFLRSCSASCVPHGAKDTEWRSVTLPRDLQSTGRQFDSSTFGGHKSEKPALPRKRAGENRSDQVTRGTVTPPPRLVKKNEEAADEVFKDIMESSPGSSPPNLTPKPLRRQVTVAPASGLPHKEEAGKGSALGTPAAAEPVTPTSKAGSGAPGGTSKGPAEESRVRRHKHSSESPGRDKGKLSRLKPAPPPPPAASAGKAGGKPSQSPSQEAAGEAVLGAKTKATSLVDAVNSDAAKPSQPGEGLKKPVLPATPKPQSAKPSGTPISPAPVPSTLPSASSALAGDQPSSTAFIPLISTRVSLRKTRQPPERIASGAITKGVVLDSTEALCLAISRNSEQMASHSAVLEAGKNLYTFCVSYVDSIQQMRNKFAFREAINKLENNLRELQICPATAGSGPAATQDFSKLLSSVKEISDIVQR
Sequence of Bcr-Abl (Homo sapiens, UniProt P00519) (P00519 whole entry): as above

On to `CCc1ccc(C(=O)Nc2cc(CN3CCN(C)CC3)cc(C(F)(F)F)c2)cc1C#Cc1cnc2ccnn2c1` [Example 7rh, 3-(2-(Pyrazolo[1,5-a]pyrimidin-6-yl)-ethynyl) 7rh benzamide], for which the in vivo half-life in series [1] is ~12 h. For the same compound, the colony formation entry with human PDA cell lines [2] is “reduced”. Besides, the “primary tumor growth compared to vehicle” value with orthotopic AsPC-1 tumors (orthotopic AsPC-1, tumor weight vs survival days) is “reduced”; with KPC mice (PDA) (KPC mice, tumor weight vs survival days), “reduced”. The compound further had a median overall survival in the series on orthotopic AsPC-1 tumors (orthotopic AsPC-1, therapy from day 27 post tumor cell injection, 7rh 25 mg/kg 3×/week oral) of 57 days. Moreover, the median of survival with KPC mice (PDA) (KPC mice enrolled at 4 months of age, 7rh 25 mg/kg 3×/week oral) was determined as 159 days. The cell migration result in the series with human PDA cell lines [3] is “reduced”.
`Cc1cn(-c2cc(NC(=O)c3ccc4c(c3)CN(c3cncnc3)CC4C)cc(C(F)(F)F)c2)cn1` (centres unmarked) [Example 26, 4-methyl-N-(3-(4-methyl-1H-imidazol-1-yl)-5-(trifluoromethyl)phenyl)-2-(pyrimidin-5-yl)-1,2,3,4-tetrahydroisoquinoline-7-carboxamide]: the IC50 at c-Kit is > 10000 nM; against Bcr-Abl [4], 7.2 µM.
`CC1CN(c2cncnc2)Cc2cc(C(=O)Nc3cc(CN4CCN(C5CCCCC5)CC4)cc(C(F)(F)F)c3)ccc21` (centres unmarked) [Example 33, N-(3-((4-cyclohexylpiperazin-1-yl)methyl)-5-(trifluoromethyl)phenyl)-4-methyl-2-(pyrimidin-5-yl)-1,2,3,4-tetrahydroisoquinoline-7-carboxamide]: the IC50 against DDR2 (cells without unit) is 0.945 µM; against c-Kit it was > 10000 nM; against Bcr-Abl [5], > 10 µM; against DDR1, 79.9 nM.
As for `CC1CN(c2cncnc2)Cc2cc(C(=O)Nc3cc(CN4CCSCC4)cc(C(F)(F)F)c3)ccc21` (centres unmarked) [Example 35, 4-methyl-2-(pyrimidin-5-yl)-N-(3-(thiomorpholinomethyl)-5-(trifluoromethyl)phenyl)-1,2,3,4-tetrahydroisoquinoline-7-carboxamide], the IC50 is 3.7 µM on DDR2 (cells printed in μM), > 10000 nM against c-Kit, > 10 µM against Bcr-Abl [5] and 209 nM against DDR1.
Consider `Nc1ccn([C@@H]2O[C@H](CO)[C@@H](O)C2(F)F)c(=O)n1` [Gemcitabine, gemcitabine], for which the IC50 in the series on AsPC-1 cells (ASPC1, AsPC-1, collagen coating, single agent, read-out: Gemcitabine (nM) Avg IC50s Collagen) is 2000 nM; in the series on AsPC-1 cells (ASPC1, AsPC-1, plastic coating, single agent, read-out: Gemcitabine (nM) Avg IC50s Plastic) it was > 2000 nM; in the series on AsPC-1 cells (ASPC1, read-out: 500 nM 7rh + Gem Avg IC50s Plastic, AsPC-1, plastic, fixed 500 nM 7rh with gemcitabine titration) it was ≤ 2 nM; with PANC-1 cells (PANC-1, PANC-1, collagen coating, single agent, read-out: Gemcitabine (nM) Avg IC50s Collagen), 2000 nM; with PANC-1 cells (PANC-1, PANC-1, plastic coating, single agent, read-out: Gemcitabine (nM) Avg IC50s Plastic) it was > 2000 nM; in the series with PANC-1 cells (PANC-1, read-out: 500 nM 7rh + Gem Avg IC50s Plastic, PANC-1, plastic, fixed 500 nM 7rh with gemcitabine titration), ≤ 2 nM.

The record behind these values is patent US10370360B2, “Small-molecule inhibitors targeting discoidin domain receptor 1 and uses thereof” (priority 2014, dated 2019).
